Experimental data: ChEMBL document CHEMBL4619760, “Anti-inflammatory Efficacy of Combined Natural Alkaloid Berberine and S1PR Modulator Fingolimod at Low Doses in Ulcerative Colitis Preclinical Models” (J Nat Prod, 2020)
Active and inactive are the calls of the source. No cut-off for these calls is given here.

Tests used:
Mus musculus [1] = assay: Anti-colitis activity against DSS-induced C57BL/6 mouse model of subchronic relapsing colitis assessed as effect on body weight at 0.15 mg/kg, po administered once daily for 14 days starting from day 5 post DSS-challenge cotreated with 20 mg/kg berberine and measured after day 12 to day 18; format: functional, organism-based
Mus musculus [2] = assay: Anti-colitis activity against DSS-induced C57BL/6 mouse model of subchronic relapsing colitis assessed as reduction in stool consistency scores at 0.3 mg/kg, po administered once daily for 14 days starting from day 5 post DSS challenge and measured on day 19; format: functional, organism-based
Mus musculus [3] = assay: Anti-colitis activity against DSS-induced C57BL/6 mouse model of subchronic relapsing colitis assessed as reduction in stool bleeding scores at 0.3 mg/kg, po administered once daily for 14 days starting from day 5 post DSS challenge and measured on day 19; format: functional, organism-based
Mus musculus [4] = assay: Anti-colitis activity against DSS-induced C57BL/6 mouse model of subchronic relapsing colitis assessed as reduction in stool bleeding score at 0.15 mg/kg, po administered once daily for 14 days starting from day 5 post DSS-challenge cotreated with 20 mg/kg berberine and measured after day 12 to day 18; format: functional, organism-based
Mus musculus [5] = assay: Anti-colitis activity against DSS-induced C57BL/6 mouse model of subchronic relapsing colitis assessed as reduction in DSS-induced colon shortening at 0.3 mg/kg, po administered once daily for 14 days starting from day 5 post DSS-challenge; format: functional, organism-based
Mus musculus [6] = assay: Anti-colitis activity against DSS-induced C57BL/6 mouse model of subchronic relapsing colitis assessed as reduction in spleen swelling at 0.3 mg/kg, po administered once daily for 14 days starting from day 5 post DSS-challenge; format: functional, organism-based
Mus musculus [7] = assay: Anti-colitis activity against DSS-induced C57BL/6 mouse model of chronic relapsing colitis assessed as reduction in stool consistency score at 0.3 mg/kg, po administered once daily for 30 days starting from day 13 post DSS-challenge measured on day 43; format: functional, organism-based
Mus musculus [8] = assay: Anti-colitis activity against DSS-induced C57BL/6 mouse model of chronic relapsing colitis assessed as reduction in stool bleeding at 0.3 mg/kg, po administered once daily for 30 days starting from day 13 post DSS-challenge measured on day 43; format: functional, organism-based
Mus musculus [9] = assay: Anti-colitis activity against DSS-induced C57BL/6 mouse model of chronic relapsing colitis assessed as reduction in disease activity index at 0.15 mg/kg, po administered once daily for 30 days starting from day 13 post DSS-challenge cotreated with 20 mg/kg berberine and measured on day 24; format: functional, organism-based
Mus musculus [10] = assay: Anti-colitis activity against DSS-induced C57BL/6 mouse model of chronic relapsing colitis assessed as reduction in stool consistency score at 0.15 mg/kg, po administered once daily for 30 days starting from day 13 post DSS-challenge cotreated with 20 mg/kg berberine measured on day 43; format: functional, organism-based
Mus musculus [11] = assay: Anti-colitis activity against DSS-induced C57BL/6 mouse model of chronic relapsing colitis assessed as reduction in DSS-induced spleen swelling at 0.3 mg/kg, po administered once daily for 30 days starting from day 13 post DSS-challenge; format: functional, organism-based
Mus musculus [12] = assay: Anti-colitis activity against DSS-induced C57BL/6 mouse model of chronic relapsing colitis assessed as reduction in DSS-induced inflammatory cell infiltration in colon at 0.3 mg/kg, po administered once daily for 30 days starting from day 13 post DSS-challenge by hematoxylin and eosin staining based light microscopic analysis; format: functional, organism-based
Mus musculus [13] = assay: Anti-colitis activity against DSS-induced C57BL/6 mouse model of chronic relapsing colitis assessed as reduction in DSS-induced loss of colon crypt and columnar epithelium at 0.15 mg/kg, po administered once daily for 30 days starting from day 13 post DSS-challenge cotreated with 20 mg/kg berberine by hematoxylin and eosin staining based light microscopic analysis; format: functional, organism-based
Mus musculus [14] = assay: Anti-colitis activity against DSS-induced C57BL/6 mouse model of chronic relapsing colitis assessed as reduction in DSS-induced mononuclear cell infiltration in spleen at 0.3 mg/kg, po administered once daily for 30 days starting from day 13 post DSS-challenge by hematoxylin and eosin staining based light microscopic analysis; format: functional, organism-based
[15] = Toxicity in DSS-induced C57BL/6 mouse model of chronic relapsing colitis assessed as induction of abnormalities in heart at 0.3 mg/kg, po administered once daily for 30 days starting from day 13 post DSS-challenge by hematoxylin and eosin staining based light microscopic analysis; format: organism-based; details: in vivo, 720 h
[16] = Toxicity in DSS-induced C57BL/6 mouse model of chronic relapsing colitis assessed as induction of abnormalities in kidney at 0.3 mg/kg, po administered once daily for 30 days starting from day 13 post DSS-challenge by hematoxylin and eosin staining based light microscopic analysis; format: organism-based; details: in vivo, 720 h
[17] = Toxicity in DSS-induced C57BL/6 mouse model of chronic relapsing colitis assessed as induction of abnormalities in heart at 0.15 mg/kg, po administered once daily for 30 days starting from day 13 post DSS-challenge cotreated with 20 mg/kg berberine by hematoxylin and eosin staining based light microscopic analysis; format: organism-based; details: in vivo, 720 h
[18] = Toxicity in DSS-induced C57BL/6 mouse model of chronic relapsing colitis assessed as induction of abnormalities in liver at 0.15 mg/kg, po administered once daily for 30 days starting from day 13 post DSS-challenge cotreated with 20 mg/kg berberine by hematoxylin and eosin staining based light microscopic analysis; format: organism-based; details: in vivo, 720 h
Mus musculus [19] = assay: Antiinflammatory activity against DSS-induced C57BL/6 mouse model of subchronic relapsing colitis assessed as reduction in IL17 mRNA level at 0.3 mg/kg, po administered once daily for 14 days starting from day 5 post DSS-challenge by RT-qPCR analysis; format: functional, organism-based
Mus musculus [20] = assay: Antiinflammatory activity against DSS-induced C57BL/6 mouse model of subchronic relapsing colitis assessed as reduction in IL6 mRNA level at 0.3 mg/kg, po administered once daily for 14 days starting from day 5 post DSS-challenge by RT-qPCR analysis; format: functional, organism-based
Mus musculus [21] = assay: Antiinflammatory activity against DSS-induced C57BL/6 mouse model of subchronic relapsing colitis assessed as reduction in TNFalpha mRNA level at 0.15 mg/kg, po administered once daily for 14 days starting from day 5 post DSS-challenge cotreated with 20 mg/kg berberine by RT-qPCR analysis; format: functional, organism-based
THP-1 = assay: Antiinflammatory activity in human THP1 cells assessed as reduction in LPS-induced TNFalpha mRNA level at 0.5 uM cotreated with 0.5 uM berberine incubated for 1 hr followed by LPS challenge and measured after 4 to 6 hrs by q-PCR method; format: functional, cell-based
[22] = target: Signal transducer and activator of transcription 3 (Homo sapiens) (UniProt P40763); assay: Inhibition of STAT3 activation in human THP1 cells assessed as reduction in LPS-induced phosphorylated STAT3 expression at 1 uM incubated for 1 hr followed by LPS challenge and measured after 4 to 6 hrs by Western blot analysis; format: cell-based; details: THP-1
Sequence of Signal transducer and activator of transcription 3 (Homo sapiens) (P40763 whole entry): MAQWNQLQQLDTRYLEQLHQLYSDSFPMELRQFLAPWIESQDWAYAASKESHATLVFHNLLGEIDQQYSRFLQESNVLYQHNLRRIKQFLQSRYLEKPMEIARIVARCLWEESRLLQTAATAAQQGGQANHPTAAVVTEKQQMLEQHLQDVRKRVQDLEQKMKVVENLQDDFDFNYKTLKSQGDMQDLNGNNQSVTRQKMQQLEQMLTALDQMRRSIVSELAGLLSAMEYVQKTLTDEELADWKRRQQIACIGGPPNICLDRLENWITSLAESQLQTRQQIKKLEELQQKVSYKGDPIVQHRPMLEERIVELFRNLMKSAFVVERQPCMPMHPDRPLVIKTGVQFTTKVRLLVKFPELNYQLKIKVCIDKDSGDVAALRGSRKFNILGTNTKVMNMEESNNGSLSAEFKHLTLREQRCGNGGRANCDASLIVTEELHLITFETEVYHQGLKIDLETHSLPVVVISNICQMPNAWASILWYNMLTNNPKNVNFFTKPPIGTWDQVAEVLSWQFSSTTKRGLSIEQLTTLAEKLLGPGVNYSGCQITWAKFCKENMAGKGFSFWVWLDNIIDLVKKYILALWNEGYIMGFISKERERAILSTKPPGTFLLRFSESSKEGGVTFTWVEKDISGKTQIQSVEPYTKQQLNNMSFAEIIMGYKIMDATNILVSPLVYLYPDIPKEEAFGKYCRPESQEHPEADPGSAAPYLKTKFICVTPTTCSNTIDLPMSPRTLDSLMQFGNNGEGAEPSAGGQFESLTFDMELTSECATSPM

[23] = target: Signal transducer and activator of transcription 3 (Homo sapiens) (UniProt P40763); assay: Inhibition of STAT3 activation in human THP1 cells assessed as reduction in LPS-induced phosphorylated STAT3 expression at 0.5 uM cotreated with 0.5 uM berberine incubated for 1 hr followed by LPS challenge and measured after 4 to 6 hrs by Western blot analysis; format: cell-based; details: THP-1
Mus musculus [24] = assay: Anti-colitis activity against DSS-induced C57BL/6 mouse model of subchronic relapsing colitis assessed as reduction in phosphorylated STAT3 level at 0.3 mg/kg, po administered once daily for 14 days starting from day 5 post DSS-challenge by Western blot analysis; format: functional, organism-based

**Q.** For `CCCCCCCCc1ccc(CCC(N)(CO)CO)cc1.Cl` [FINGOLIMOD HYDROCHLORIDE], which Activity (Mus musculus [1]) is on record?
**A.** inactive

**Q.** What about the Activity (Mus musculus [2]) of the same compound?
**A.** Active

**Q.** What about the Activity (Mus musculus [3]) of the same compound?
**A.** Active

**Q.** And the Activity (Mus musculus [4])?
**A.** Active

**Q.** What about the Activity (Mus musculus [5]) of the same compound?
**A.** Active

**Q.** And the Activity (Mus musculus [6])?
**A.** inactive

**Q.** And the Activity (Mus musculus [7])?
**A.** Active

**Q.** And the Activity (Mus musculus [8])?
**A.** Active

**Q.** What about the Activity (Mus musculus [9]) of the same compound?
**A.** Active

**Q.** And the Activity (Mus musculus [10])?
**A.** Active

**Q.** What about the Activity (Mus musculus [11]) of the same compound?
**A.** Active

**Q.** And the Activity (Mus musculus [12])?
**A.** Active

**Q.** And the Activity (Mus musculus [13])?
**A.** Active

**Q.** What about the Activity (Mus musculus [14]) of the same compound?
**A.** Active

**Q.** What about the Activity [15] of the same compound?
**A.** Non-Toxic

**Q.** And the Activity [16]?
**A.** Non-Toxic

**Q.** And the Activity [17]?
**A.** Non-Toxic

**Q.** What about the Activity [18] of the same compound?
**A.** Non-Toxic

**Q.** What about the Activity (Mus musculus [19]) of the same compound?
**A.** Active

**Q.** What about the Activity (Mus musculus [20]) of the same compound?
**A.** Active

**Q.** What about the Activity (Mus musculus [21]) of the same compound?
**A.** Active

**Q.** And the Activity (THP-1)?
**A.** Active

**Q.** What about the inhibition [22] of the same compound?
**A.** Active

**Q.** What about the inhibition [23] of the same compound?
**A.** Active

**Q.** What about the Activity (Mus musculus [24]) of the same compound?
**A.** Active
